Test results: patent US20090143478A1, “Milled Submicron Organic Biocides With Narrow Particle Size Distribution, and Uses Thereof” (PhibroWood, LLC, priority 2004, published 2009)
Like-named read-outs stand apart in the source and are kept apart here.

Key:
[1] = type: physicochemical; conditions: 0.4-0.5 mm zirconium silicate
Experimental: (§1) The laboratory-sized vertical mill was provided by C B Mills, model# L-3-J. The mill has a 2 liter capacity and is jacketed for cooling. Unless otherwise specified, ambient water was cycled through the mill cooling jacket during operation. The internal dimensions are 3.9″ diameter by 9.1″ height. The mill uses a standard 3×3″ disk agitator (mild steel) on a stainless steel shaft, and it operates at 2,620 rpm.
(§2) The media used in this Example was 0.4-0.5 mm zirconium silicate beads supplied by C B Mills. All particle size determinations were made with a Sedigraph™ 5100T manufactured by Micromeritics, which uses x-ray detection and bases calculations of size on Stokes' Law.
The total batch weight was about 600 g.

[2] = Wet milling chlorothalonil with 0.5-0.6 mm cerium-doped zirconium oxide beads, particle size by Sedigraph; type: physicochemical
Experimental: as §1, §2
The same mill and conditions were used in this experiment as in experiment 1. However, the grinding media was 0.5-0.6 mm cerium-doped zirconium oxide beads obtained from CB Mills. The density of the cerium doped zirconium oxide is ˜6.0 g/cm^3. […] The total batch weight was about 600 g.

[3] = at 170 C; cited from earlier work
[4] = cited from earlier work
[5] = Milling Time 0 Mins., 0.5-0.6 mm cerium-doped zirconium oxide
[6] = Milling Time 90 Mins., 0.5-0.6 mm cerium-doped zirconium oxide
[7] = Milling Time 240 Mins., 0.5-0.6 mm cerium-doped zirconium oxide
[8] = obtainable in 6 hours, 0.5 mm zirconia milling media
[9] = 0.1 cm zirconia, 10 minutes, US 2004/0063847, 2003/0040569

Structure (SMILES): N#Cc1c(Cl)c(Cl)c(Cl)c(C#N)c1Cl [chlorothalonil, 2,4,5,6-tetrachloro-1,3-dicyanobenzene]
- Volume % With Diameter Greater Than 2 μm ([1]; Milling Time 0 Mins.): 95 Volume %
- Volume % With Diameter Greater Than 5 μm ([1]; Milling Time 0 Mins.): 48 Volume %
- Volume % With Diameter Greater Than 10 μm ([1]; Milling Time 0 Mins.): 10 Volume %
- d50 ([1]; Milling Time 0 Mins.): 4.9 μm
- Volume % With Diameter Greater Than 1 μm ([1]; Milling Time 30 Mins.): 68 Volume %
- Volume % With Diameter Greater Than 2 μm ([1]; Milling Time 30 Mins.): 21 Volume %
- Volume % With Diameter Greater Than 5 μm ([1]; Milling Time 30 Mins.): 4 Volume %
- Volume % With Diameter Greater Than 10 μm ([1]; Milling Time 30 Mins.): 0 Volume %
- d50 ([1]; Milling Time 30 Mins.): 1.3 μm
- Volume % With Diameter Greater Than 1 μm ([1]; Milling Time 60 Mins.): 50 Volume %
- Volume % With Diameter Greater Than 2 μm ([1]; Milling Time 60 Mins.): 11 Volume %
- Volume % With Diameter Greater Than 5 μm ([1]; Milling Time 60 Mins.): 2 Volume %
- Volume % With Diameter Greater Than 10 μm ([1]; Milling Time 60 Mins.): 4 Volume %
- d50 ([1]; Milling Time 60 Mins.): 1.0 μm
- Volume % With Diameter Greater Than 1 μm ([1]; Milling Time 90 Mins.): 94 Volume %
- Volume % With Diameter Greater Than 2 μm ([1]; Milling Time 90 Mins.): 22 Volume %
- Volume % With Diameter Greater Than 5 μm ([1]; Milling Time 90 Mins.): 23 Volume %
- Volume % With Diameter Greater Than 10 μm ([1]; Milling Time 90 Mins.): 18 Volume %
- d50 ([1]; Milling Time 90 Mins.): 1.4 μm
- Volume % With Diameter Greater Than 2 μm ([1]; Milling Time 120 Mins.): 4 Volume %
- Volume % With Diameter Greater Than 5 μm ([1]; Milling Time 120 Mins.): 0 Volume %
- Volume % With Diameter Greater Than 10 μm ([1]; Milling Time 120 Mins.): 2 Volume %
- d50 ([1]; Milling Time 120 Mins.): 1.03 μm
- Volume % With Diameter Greater Than 1 μm ([1]; Milling Time 150 Mins.): 58 Volume %
- Volume % With Diameter Greater Than 2 μm ([1]; Milling Time 150 Mins.): 6 Volume %
- Volume % With Diameter Greater Than 5 μm ([1]; Milling Time 150 Mins.): 2 Volume %
- Volume % With Diameter Greater Than 10 μm ([1]; Milling Time 150 Mins.): 0 Volume %
- d50 ([1]; Milling Time 150 Mins.): 1.12 μm
- Volume % With Diameter Greater Than 1 μm ([1]; Milling Time 180 Mins.): 53 Volume %
- Volume % With Diameter Greater Than 2 μm ([1]; Milling Time 180 Mins.): 7 Volume %
- Volume % With Diameter Greater Than 5 μm ([1]; Milling Time 180 Mins.): 2 Volume %
- Volume % With Diameter Greater Than 10 μm ([1]; Milling Time 180 Mins.): 2 Volume %
- d50 ([1]; Milling Time 180 Mins.): 1.07 μm
- Volume % With Diameter Greater Than 1 μm ([1]; Milling Time 270 Mins.): 54 Volume %
- Volume % With Diameter Greater Than 2 μm ([1]; Milling Time 270 Mins.): 8 Volume %
- Volume % With Diameter Greater Than 5 μm ([1]; Milling Time 270 Mins.): 0 Volume %
- Volume % With Diameter Greater Than 10 μm ([1]; Milling Time 270 Mins.): 2 Volume %
- d50 ([1]; Milling Time 270 Mins.): 1.09 μm
- Volume % With Diameter Greater Than 1 μm ([1]; Milling Time 450 Mins.): 56 Volume %
- Volume % With Diameter Greater Than 2 μm ([1]; Milling Time 450 Mins.): 21 Volume %
- Volume % With Diameter Greater Than 5 μm ([1]; Milling Time 450 Mins.): 8 Volume %
- Volume % With Diameter Greater Than 10 μm ([1]; Milling Time 450 Mins.): 12 Volume %
- d50 ([1]; Milling Time 450 Mins.): 1.15 μm
- Volume % With Diameter Greater Than 1 μm [2, 5]: 92 Volume %
- Volume % With Diameter Greater Than 2 μm [2, 5]: 77 Volume %
- Volume % With Diameter Greater Than 5 μm [2, 5]: 30 Volume %
- Volume % With Diameter Greater Than 10 μm [2, 5]: 8 Volume %
- d50 [2, 5]: 3.44 μm
- Volume % With Diameter Greater Than 0.4 μm [2, 6]: 22 Volume %
- Volume % With Diameter Greater Than 1 μm [2, 6]: 3 Volume %
- Volume % With Diameter Greater Than 2 μm [2, 6]: 3 Volume %
- Volume % With Diameter Greater Than 5 μm [2, 6]: 3 Volume %
- Volume % With Diameter Greater Than 10 μm [2, 6]: 3 Volume %
- Volume % With Diameter Greater Than 0.2 μm [2, 7]: 51 Volume %
- Volume % With Diameter Greater Than 0.4 μm [2, 7]: 3 Volume %
- Volume % With Diameter Greater Than 1 μm [2, 7]: 3 Volume %
- Volume % With Diameter Greater Than 2 μm [2, 7]: 2 Volume %
- Volume % With Diameter Greater Than 5 μm [2, 7]: 1 Volume %
- Volume % With Diameter Greater Than 10 μm [2, 7]: 0 Volume %
- d50 [2, 7]: 0.21 μm
- d95 within a factor of the d50 ([2]; milled chlorothalonil of the example): ≤ 2
- d95 ([2]; obtainable in 90 minutes, 0.5 mm zirconia milling media): less than 1 micron
- d50 [2, 8]: less than 0.3 microns
- d95 [2, 8]: less than 0.4 microns
- increase in number of particles per unit of mass over the standard products, factor ([2]; product obtained after 90 minutes of milling (first statement)): more than 30
- increase in number of particles per unit of mass over the standard products, factor ([2]; product obtained after 90 minutes of milling (second statement)): more than 1000
- volatility [3]: 9.2 mmHg
- size below which 90% of the number of particles lie ([4]; 0.1 cm zirconium beads, 3000 rpm, 10 minutes, US 2004/0024099): below 0.5 microns
- mean / average particle diameter after milling with 2 mm glass beads ([4]; U.S. Pat. No. 5,360,783): 2.3 microns
- average particle size of the product ([4]; U.S. Pat. No. 5,667,795, 40% chlorothalonil, 5.6% zinc oxide, wet mill): 3 microns

Structure (SMILES): CC1OC(C)OC(C)OC(C)O1 (stereo not drawn) [metaldehyde]
- diameter below which 90% of the particles lie [4, 9]: less than 2.5 microns
- mean volume diameter [4, 9]: less than 1.5 microns
